These results are taken from patent publication US6914160B1, “Oxytocin inhibitors” (Pfizer Inc, priority 2002, dated 2005).

For the assay, the target named is T1, Oxytocin Receptor (Homo sapiens, UniProt P30559).
T1 construct: expressed in transfected cells; host or cells: CHO cells (membrane preparation)
T1 sequence (P30559 1-389): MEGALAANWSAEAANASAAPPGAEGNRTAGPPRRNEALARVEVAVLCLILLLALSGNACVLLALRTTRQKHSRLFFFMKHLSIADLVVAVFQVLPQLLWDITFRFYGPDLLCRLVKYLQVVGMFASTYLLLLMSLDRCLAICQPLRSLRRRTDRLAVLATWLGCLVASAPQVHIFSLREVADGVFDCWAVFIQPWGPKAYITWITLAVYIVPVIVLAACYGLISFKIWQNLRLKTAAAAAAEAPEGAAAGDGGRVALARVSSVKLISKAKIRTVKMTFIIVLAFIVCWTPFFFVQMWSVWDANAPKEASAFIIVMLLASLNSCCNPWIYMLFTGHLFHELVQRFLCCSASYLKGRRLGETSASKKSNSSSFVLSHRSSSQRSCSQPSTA
In words: Oxytocin Receptor Ligand Binding IC50 Assay (125I-OVTA SPA, CHO cell membranes). As to the method: A. Oxytocin Receptor Ligand Binding IC50 Assay
• ii) Compound Dilution (Final concentration of 10 μM in the assay) • a) HTA stock compounds at 4 mM in 100% DMSO • b) Dilute compounds to 200 μM in dH2O. • c) Further dilute compounds to 100 μM in 100 mM Tris-HCl, pH 7.8, 20 mM MgCl2. This gives final concentrations of 2.5% DMSO, 50 mM Tris-HCl, pH 7.8, 10 mM MgCl2. • d) Using the diluted stock, prepare 1:2 dilutions over 10 points in 50 mM Tris-HCl, pH 7.8, 10 mM MgCl2, 2.5% DMSO with the TECAN Genesis. • e) Dispense 10 μl of the compound into a 384 well Optiplate according to the plate layout required for analysis by ECADA leaving space for the standard (arg^8)-vasotocin IC50. […] Protein concentrations are then measured and the membrane suspension is finally frozen in aliquots at a minimum of 5 mg/ml at −80° C. vi) Assay • Membranes are thawed on ice before diluting to 1 mg/ml in assay buffer. […] A 5 μl sample is then counted in duplicate using liquid scintillation counting (protocol 61 on Wallac Counter) and the concentration of the ligand is calculated (see example below). […] Using the measured concentration, the ^125I-OVTA is diluted to 0.3 nM in assay buffer. […]

For orientation: Ki means the dissociation constant of the complex between target and ligand, obtained from inhibition or displacement. Higher therefore signals lower affinity.

As for `COc1cccc(C(C(N)=O)N(Cc2ccc(C)cc2)C(=O)c2c(C)cc(C)nc2N)c1` (single isomer, unassigned) [Example 258, (R or S)-2-Amino-N-[carbamoyl-[(3-methoxyphenyl)-methyl]-4,6-dimethyl-N-(4-methyl-benzyl)-nicotinamide], the Ki was 9.4 nM.
Then `Cc1ccc(CN(C(=O)c2c(C)cc(C)nc2N)C(C(N)=O)c2ccc3c(c2)OCCO3)cc1` (centres unmarked) [Example 257, 2-Amino-N-[carbamoyl-(2,3-dihydro-benzo[1.4]dioxin-6-yl)-methyl]-4,6-dimethyl-N-(4-methyl-benzyl)-nicotinamide], with 9.4 nM.
